Measurements: patent US12473289B2, “Heterocyclic compounds as delta-5 desaturase inhibitors and methods of use” (Amgen Inc., priority 2019, dated 2025)

Target: Delta-5-Desaturase (D5D) (Homo sapiens (Human), UniProt O60427)
Assay: In vitro measurement of Delta-5-Desaturase inhibitory activity using DGLA-CoA and Arachidonyl-CoA mass spectrometric assays
Format: biochemical
Details: membrane preparations of D5D-overexpressing HEK293 6E cells; averaged over at least two independent runs
Method: In vitro Measurement of Delta-5-Desaturase Inhibitory Activity using DGLA-CoA and Arachidonyl-CoA Mass Spectrometric Assays
Membrane preparations of D5D-overexpressing HEK293 6E cells were prepared in which the total protein concentration was 5.6 mg/mL. Stock D5D membrane preparations were diluted in D5D assay buffer (25 mM 2-amino-2-(hydroxymethyl)-1,3-propanediol, pH 7.5 containing 10 mM MgCl2, 1 mM octyl glucoside (SigmaAldrich 0-8001), 1 mM tris(2-carboxyethyl)phosphine hydrochloride (SigmaAldrich 646547)) to a final D5D membrane concentration of 10 μg/mL in an assay plate containing serially diluted test compounds. To 15 μL of this D5D preparation was added 15 μL of a substrate solution (0.25 mM NADH (nicotinamide adenine dinucleotide, Roche Diag. 10107735001), 0.25 mM adenosine triphosphate (SigmaAldrich A-3377), 0.05 mM coenzyme A hydrate (SigmaAldrich C-4282), and 0.01 mM DGLA (dihomo-g-linolenic acid, Sigma E-4504) in the same D5D assay buffer. After one-hour incubation at ambient temperature acetonitrile (30 μL) was added to quench the reaction and plates were centrifuged for 10 min @3,000 rpm. Mass spectrometric analysis involved a Rapidfire 360 SPE system coupled to an ABSciex API4000 Triple Quadrupole mass spectrometer using a C18 SPE cartridge (G9203-80105) with ionization in negative mode (solvent A=100% water; solvent B=100% acetonitrile, each solvent containing 5 mM ammonium acetate). DGLA-CoA and Arachidonyl-CoA were detected by multiple reaction monitoring (MRM) of the doubly charged parent ions at m/z 526.6 and 525.6, respectively.
Sx is value from unknown sample, So is value from DMSO alone and Sc is value from no enzyme well. For CRC analysis, the % of inhibitions were analyzed with 4 Parameter Logistic Model or Sigmoidal Dose-Response Model using XLfit (IDBS, Guilford, UK). The potency of the test item was expressed as IC50 nM, corresponding to the test item concentration able to inhibit the 50% of the enzyme maximal response. IC50 values were averaged values determined by at least two independent runs.
This assay may be used to test any of the compounds described herein to assess and characterize a compound's ability to inhibit D5D.

Chain of Delta-5-Desaturase (D5D) (O60427 whole entry, species assumed): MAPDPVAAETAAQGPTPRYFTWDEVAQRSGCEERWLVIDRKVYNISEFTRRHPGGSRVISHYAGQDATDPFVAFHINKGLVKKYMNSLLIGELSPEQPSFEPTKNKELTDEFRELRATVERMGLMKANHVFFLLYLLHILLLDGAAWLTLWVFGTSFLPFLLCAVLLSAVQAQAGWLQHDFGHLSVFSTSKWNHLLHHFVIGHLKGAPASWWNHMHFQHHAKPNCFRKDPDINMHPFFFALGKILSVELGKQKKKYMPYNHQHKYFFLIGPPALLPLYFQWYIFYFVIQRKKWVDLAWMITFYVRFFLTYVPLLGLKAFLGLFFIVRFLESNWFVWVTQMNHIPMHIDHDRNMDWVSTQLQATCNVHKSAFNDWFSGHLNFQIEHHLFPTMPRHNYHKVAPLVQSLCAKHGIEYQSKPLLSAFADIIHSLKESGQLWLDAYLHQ

| SMILES | IC50 |
| --- | --- |
| CCCc1ccc(-c2c(C(F)(F)F)nc3cc(OC)ccn3c2=O)cn1 [Example 7-6, 8-methoxy-3-(6-propyl-3-pyridinyl)-2-(trifluoromethyl)-4H-pyrido[1,2-a]pyrimidin-4-one] | 302 nM |
| O=c1ccn2c(=O)c(-c3ccc(OCCF)cc3)c(C(F)(F)F)nc2[nH]1 [Example 1-56, 7-(4-(2-fluoroethoxy)phenyl)-8-(trifluoromethyl)-2H-pyrimido[1,2-a]pyrimidine-2,6(1H)-dione] | 9280 nM |
| CCCn1cc(-c2c(C(F)(F)F)nc3ccccn3c2=O)cn1 [Example 5-4, 3-(1-propyl-1H-pyrazol-4-yl)-2-(trifluoromethyl)-4H-pyrido[1,2-a]pyrimidin-4-one] | 198 nM |
| COc1ccn2c(=O)c(-c3ccc(OCC(F)(F)F)nc3F)c(C(F)(F)F)nc2c1 [Example 7-1, 3-(2-Fluoro-6-(2,2,2-trifluoroethoxy)-3-pyridinyl)-8-methoxy-2-(trifluoromethyl)-4H-pyrido[1,2-a]pyrimidin-4-one] | 125 nM |
| Cc1cnn2c(=O)c(-c3cnn(CC4CC(F)(F)C4)c3)c(C(F)(F)F)nc2c1 [Example 39-52, 3-{1-[(3,3-difluorocyclobutyl)methyl]-1H-pyrazol-4-yl)-8-methyl-2-(trifluoromethyl)-4H-pyrimido[1,2-b]pyridazin-4-one] | 420 nM |
| C[C@@H](O)c1ccn2c(=O)c(-c3ccc(OCC(F)(F)F)cc3)c(C(F)(F)F)nc2c1 [Example 30-2, 8-((1R)-1-hydroxyethyl)-3-(4-(2,2,2-trifluoroethoxy)phenyl)-2-(trifluoromethyl)-4H-pyrido[1,2-a]pyrimidin-4-one] | 111 nM |
| C[C@H](O)c1ccn2c(=O)c(-c3cnn(CC(F)(F)C(F)(F)F)c3)c(C(F)(F)F)nc2c1 [Example 31-2, 8-((1S)-1-hydroxyethyl)-3-(1-(2,2,3,3,3-pentafluoropropyl)-1H-pyrazol-4-yl)-2-(trifluoromethyl)-4H-pyrido[1,2-a]pyrimidin-4-one] | 160 nM |
| Cc1cnn2c(=O)c(-c3cnc(OCC(F)(F)F)nc3)c(C(F)(F)F)nc2c1 [Example 39-48, 8-methyl-3-[2-(2,2,2-trifluoroethoxy)pyrimidin-5-yl]-2-(trifluoromethyl)-4H-pyrimido[1,2-b]pyridazin-4-one] | 518 nM |
| COc1ccn2c(=O)c(-c3cnn(C4CC4)c3)c(C(F)(F)F)nc2c1 [Example 49, 3-(1-Cyclopropyl-1H-pyrazol-4-yl)-8-methoxy-2-(trifluoromethyl)-4H-pyrido[1,2-a]pyrimidin-4-one] | 104 nM |
| O=c1c(-c2ccc(OCC(F)(F)F)cc2)c(C(F)(F)F)nc2cc(C3CNC3)ccn12 [Example 28, 8-(3-Azetidinyl)-3-(4-(2,2,2-trifluoroethoxy)phenyl)-2-(trifluoromethyl)-4H-pyrido[1,2-a]pyrimidin-4-one] | 2940 nM |
| COc1cc2nc(C(F)(F)F)c(-c3cnn(CCC(F)(F)F)c3)c(=O)n2cc1Cl [Example 39-2, 7-chloro-8-methoxy-2-(trifluoromethyl)-3-[1-(3,3,3-trifluoropropyl)-1H-pyrazol-4-yl]-4H-pyrido[1,2-a]pyrimidin-4-one] | 113 nM |
| COc1ccc2nc(C(F)(F)F)c(-c3cnn(CC(F)(F)C(F)(F)F)c3)c(=O)n2n1 [Example 39-14, 7-methoxy-3-[1-(2,2,3,3,3-pentafluoropropyl)-1H-pyrazol-4-yl]-2-(trifluoromethyl)-4H-pyrimido[1,2-b]pyridazin-4-one] | 44400 nM |
| COc1cc2nc(C(F)(F)F)c(-c3cnn(CC(F)(F)C(F)(F)F)c3)c(=O)n2cc1Cl [Example 1-45, 7-chloro-8-methoxy-3-[1-(2,2,3,3,3-pentafluoropropyl)-1H-pyrazol-4-yl]-2-(trifluoromethyl)-4H-pyrido[1,2-a]pyrimidin-4-one] | 86.1 nM |
| O=c1c(-c2cnn(CCC(F)(F)F)c2)c(C(F)(F)F)nc2n1CCOC2 [Example 39-38, 2-(trifluoromethyl)-3-[1-(3,3,3-trifluoropropyl)-1H-pyrazol-4-yl]-4H,6H,7H,9H-pyrimido[2,1-c][1,4]oxazin-4-one] | 1070 nM |
| O=c1c(-c2cnn(CC(F)(F)C(F)(F)F)c2)c(C(F)(F)F)nc2ccc(C3CC3)cn12 [Example 39-21, 7-cyclopropyl-3-[1-(2,2,3,3,3-pentafluoropropyl)-1H-pyrazol-4-yl]-2-(trifluoromethyl)-4H-pyrido[1,2-a]pyrimidin-4-one] | 110 nM |

Stronger by IC50, values ahead:

| IC50 | SMILES |
| --- | --- |
| 80.7 nM | O=c1ccn2c(=O)c(-c3cnn(CC(F)(F)C(F)(F)F)c3)c(C(F)(F)F)nc2n1CF [Example 68, 1-(Fluoromethyl)-7-[1-(2,2,3,3,3-pentafluoropropyl)-1H-pyrazol-4-yl]-8-(trifluoromethyl)-1H,2H,6H-[1,3]diazino[1,2-a]pyrimidine-2,6-dione] |
| 66.2 nM | COc1ccn2c(=O)c(-c3cn(CCC(F)(F)F)cn3)c(C(F)(F)F)nc2c1 [Example 25, 8-Methoxy-2-(trifluoromethyl)-3-(1-(3,3,3-trifluoropropyl)-1H-imidazol-4-yl)-4H-pyrido[1,2-a]pyrimidin-4-one] |
| 47.3 nM | N#Cc1ccc2nc(C(F)(F)F)c(-c3cnn(CC(F)(F)C(F)(F)F)c3)c(=O)n2c1 [Example 39-9, 4-oxo-3-[1-(2,2,3,3,3-pentafluoropropyl)-1H-pyrazol-4-yl]-2-(trifluoromethyl)-4H-pyrido[1,2-a]pyrimidine-7-carbonitrile] |
| 20.4 nM | COc1cc2nc(C(F)(F)F)c(-c3cnn(CCC(F)(F)F)c3)c(=O)n2cc1F [Example 39-58, 7-fluoro-8-methoxy-2-(trifluoromethyl)-3-[1-(3,3,3-trifluoropropyl)-1H-pyrazol-4-yl]-4H-pyrido[1,2-a]pyrimidin-4-one] |
| 17.6 nM | CCCn1cc(-c2c(C(F)(F)F)nc3cc(OC)ccn3c2=O)cn1 [Example 1-76, 8-methoxy-3-(1-propyl-1H-pyrazol-4-yl)-2-(trifluoromethyl)-4H-pyrido[1,2-a]pyrimidin-4-one] |
| 13.9 nM | COc1ccn2c(=O)c(-c3cnn(-c4ccc(F)cc4)c3)c(C(F)(F)F)nc2c1 [Example 1-17, 3-(1-(4-fluorophenyl)-1H-pyrazol-4-yl)-8-methoxy-2-(trifluoromethyl)-4H-pyrido[1,2-a]pyrimidin-4-one] |
| 11.9 nM | COc1ccn2c(=O)c(-c3ccc(CCC(F)(F)F)cc3)c(C(F)(F)F)nc2c1 [Example 7-5, 8-methoxy-2-(trifluoromethyl)-3-(4-(3,3,3-trifluoropropyl)phenyl)-4H-pyrido[1,2-a]pyrimidin-4-one] |
| 11.4 nM | [2H]C([2H])([2H])Oc1ccn2c(=O)c(-c3cnn(CCC(F)(F)F)c3)c(C(F)(F)F)nc2c1 [Example 1-61, 8-(methyloxy-d3)-2-(trifluoromethyl)-3-(1-(3,3,3-trifluoropropyl)-1H-pyrazol-4-yl)-4H-pyrido[1,2-a]pyrimidin-4-one] |
| 8.5 nM | COc1ccn2c(=O)c(-c3ccc(OCC(F)(F)F)cc3F)c(C(F)(F)F)nc2n1 [Example 1-53, 3-(2-fluoro-4-(2,2,2-trifluoroethoxy)phenyl)-8-methoxy-2-(trifluoromethyl)-4H-pyrimido[1,2-a]pyrimidin-4-one] |
| 5.7 nM | COc1ccn2c(=O)c(-c3ccc(OC[C@H]4CC4(F)F)cc3)c(C(F)(F)F)nc2c1 [Example 1-83, 3-(4-(((1R)-2,2-Difluorocyclopropyl)methoxy)phenyl)-8-methoxy-2-(trifluoromethyl)-4H-pyrido[1,2-a]pyrimidin-4-one] |
| 4.1 nM | O=c1c(-c2ccc(OCC(F)(F)F)cc2)c(C(F)(F)F)nc2cc(Cl)ccn12 [Example 2-7, 8-chloro-3-(4-(2,2,2-trifluoroethoxy)phenyl)-2-(trifluoromethyl)-4H-pyrido[1,2-a]pyrimidin-4-one] |
| 3.9 nM | [2H]C([2H])([2H])c1ccn2c(=O)c(-c3ccc(OCC(F)(F)F)cc3)c(C(F)(F)F)nc2c1 [Example 2-5, 8-(methyl-d3)-3-(4-(2,2,2-trifluoroethoxy)phenyl)-2-(trifluoromethyl)-4H-pyrido[1,2-a]pyrimidin-4-one] |
| 2.7 nM | Cc1ccn2c(=O)c(-c3ccc(OCC(F)(F)F)cc3)c(C(F)(F)F)nc2c1 [Example 1-78, 8-methyl-3-(4-(2,2,2-trifluoroethoxy)phenyl)-2-(trifluoromethyl)-4H-pyrido[1,2-a]pyrimidin-4-one] |
| 2.4 nM | O=c1c(-c2cnn(CCC(F)(F)F)c2)c(C(F)(F)F)nc2ccc(Cl)cn12 [Example 39-17, 7-chloro-2-(trifluoromethyl)-3-[1-(3,3,3-trifluoropropyl)-1H-pyrazol-4-yl]-4H-pyrido[1,2-a]pyrimidin-4-one] |
